In the supplement of paper PMC4862054:

What was measured:
CAL-85-1 [1] = conditions: 72 h
Method: (§1)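 Drug sensitivity and resistance testing (DSRT) of breast cancer cell lines in 384-well plates, 5 concentrations in 10-fold dilutions over a compound-specific 10,000-fold range. After 72 h, cytotoxicity was read by CellTox Green fluorescence and viability by CellTiter-Glo luminescence (multiplexed), normalised to DMSO and benzethonium chloride controls. EC50 is the inflection point of the fitted dose-response curve (bottom asymptote free, so it can be relative for partial curves) and is censored at the highest tested concentration. Rows with DSS 0 (no meaningful response) were excluded.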

MDA-MB-468 = conditions: 72 h
Method: as §1

CAL-51 [2] = conditions: 72 h
Method: as §1

HCC1937 [3] = conditions: 72 h
Method: as §1

MDA-MB-453 [4] = conditions: 72 h
Method: as §1

Hs578T [5] = conditions: 72 h
Method: as §1

MDA-MB-231 [6] = conditions: 72 h
Method: as §1

MFM-223 [7] = conditions: 72 h
Method: as §1

HCC1599 [8] = conditions: 72 h
Method: as §1

DU-4475 [9] = conditions: 72 h
Method: as §1

HCC1143 [10] = conditions: 72 h
Method: as §1

MCF-10A [11] = conditions: 72 h
Method: as §1

HDQ-P1 = conditions: 72 h
Method: as §1

BT-474 = conditions: 72 h
Method: as §1

BT-549 [12] = conditions: 72 h
Method: as §1

CAL-85-1 [13] = conditions: 72 h; remark: listed apart in the source
In short: (§2)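 EC50 was fitted from dose-response curves and censored at the highest concentration tested. To build those curves, breast cancer cell lines (20 µl suspension) were seeded into 384-well plates containing compound at 5 concentrations in 10-fold steps over a compound-specific 10,000-fold range and incubated for 72 h. Readouts were CellTox Green fluorescence (485/520 nm) for cell death and then CellTiter-Glo luminescence for viability, with each plate normalised to 0.1 % DMSO and a positive kill control.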

SK-BR-3 = conditions: 72 h
In short: as §2

CAL-51 [14] = conditions: 72 h; remark: listed apart in the source
In short: as §2

HCC1937 [15] = conditions: 72 h; remark: listed apart in the source
In short: as §2

MDA-MB-453 [16] = conditions: 72 h; remark: listed apart in the source
In short: as §2

Hs578T [17] = conditions: 72 h; remark: listed apart in the source
In short: as §2

MDA-MB-231 [18] = conditions: 72 h; remark: listed apart in the source
In short: as §2

MFM-223 [19] = conditions: 72 h; remark: listed apart in the source
In short: as §2

HCC1599 [20] = conditions: 72 h; remark: listed apart in the source
In short: as §2

MDA-MB-436 = conditions: 72 h
In short: as §2

DU-4475 [21] = conditions: 72 h; remark: listed apart in the source
In short: as §2

HCC1143 [22] = conditions: 72 h; remark: listed apart in the source
In short: as §2

CAL-148 = conditions: 72 h
In short: as §2

MCF-10A [23] = conditions: 72 h; remark: listed apart in the source
In short: as §2

BT-549 [24] = conditions: 72 h; remark: listed apart in the source
In short: as §2

CAL-120 = conditions: 72 h
In short: as §2

HCC1937 [25] = assay: drug sensitivity score (DSS), CellTox Green (DSS (AUC-based score)); higher = stronger drug effect (viability inhibition or cytotoxicity); extreme values may be limits of the assay; conditions: incubation time: 72 h
In short: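 Plates with 384 wells held compound at 5 concentrations in 10-fold steps over a 10,000-fold range specific to each compound. Breast cancer cell lines were added in 20 µl suspension and incubated 72 h, then read for CellTox Green and CellTiter-Glo signals, with each plate normalised to 0.1 % DMSO and a positive kill control. The drug sensitivity score is based on the area under the fitted dose-response curve.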

Cc1ccc([N+](=O)[O-])cc1S(=O)(=O)N(C)/N=C/c1cnc2ccc(Br)cn12 [PIK-75]
EC50, CellTox Green (CAL-85-1 [1]): 31.6 nM | EC50, CellTox Green (MDA-MB-468): 178 nM | EC50, CellTox Green (CAL-51 [2]): 6.21 nM | EC50, CellTox Green (HCC1937 [3]): 6400 nM | EC50, CellTox Green (MDA-MB-453 [4]): 597 nM | EC50, CellTox Green (Hs578T [5]): 42 nM | EC50, CellTox Green (MDA-MB-231 [6]): 6.39 nM | EC50, CellTox Green (MFM-223 [7]): 582 nM | EC50, CellTox Green (HCC1599 [8]): 33.9 nM | EC50, CellTox Green (DU-4475 [9]): 23.8 nM | EC50, CellTox Green (HCC1143 [10]): 182 nM | EC50, CellTox Green (MCF-10A [11]): 16.6 nM | EC50, CellTox Green (HDQ-P1): 105 nM | EC50, CellTox Green (BT-474): 161 nM | EC50, CellTox Green (BT-549 [12]): 274 nM | EC50, CellTiter-Glo (CAL-85-1 [13]): 30.6 nM | EC50, CellTiter-Glo (SK-BR-3): 26.8 nM | EC50, CellTiter-Glo (CAL-51 [14]): 21.3 nM | EC50, CellTiter-Glo (HCC1937 [15]): 48.5 nM | EC50, CellTiter-Glo (MDA-MB-453 [16]): 98.6 nM | EC50, CellTiter-Glo (Hs578T [17]): 35.4 nM | EC50, CellTiter-Glo (MDA-MB-231 [18]): 27.6 nM | EC50, CellTiter-Glo (MFM-223 [19]): 52.1 nM | EC50, CellTiter-Glo (HCC1599 [20]): 87.2 nM | EC50, CellTiter-Glo (MDA-MB-436): 29.8 nM | EC50, CellTiter-Glo (DU-4475 [21]): 35.2 nM | EC50, CellTiter-Glo (HCC1143 [22]): 51.3 nM | EC50, CellTiter-Glo (CAL-148): 21.1 nM | EC50, CellTiter-Glo (MCF-10A [23]): 45.7 nM | EC50, CellTiter-Glo (BT-549 [24]): 39 nM | EC50, CellTiter-Glo (CAL-120): 29.2 nM | drug sensitivity score (HCC1937 [25]): 2.32
